A short description of data set [1]: pKa of carvedilol free base. Format: physicochemical.
The nature of data set [2]: physchem. Conditions: 25 °C, water, thermodynamic from solid.
The nature of data set [3]: physchem.
Data set [4] in a line: Aqueous solubility at 25° C. of carvedilol and its salt forms. Conditions: water.

The values below come from patent US6515010B1 (SmithKline Beecham Corporation, priority 1999, dated 2003).

As a reminder, the pKa is the pH at which an ionisable group is half protonated. Low values mean a group that gives up its proton readily, high ones a group that holds its proton tightly. As a reminder, the solubility is the concentration that dissolves in the medium under given conditions. A higher solubility goes with a readily soluble substance. One may read the Aqueous Solubility as the concentration that dissolves in the medium under given conditions.

Converted amounts (≈) assume the structure as drawn. Bounds are passed on as bounds.

Regarding `COc1ccccc1OCCNCC(O)COc1cccc2[nH]c3ccccc3c12` (stereo not shown) [Carvedilol], the pKa in data set [1] turned out to be 7.6. In data set [2], this compound returned a solubility at 1 hr of 9.8 µg/mL (≈ 24.1 µM) and a solubility at 24 hr of 11.6 µg/mL (≈ 28.5 µM). In data set [3] (pH 4, aqueous buffer), this compound had a solubility of about 200 µg/mL (≈ 492 µM). This compound also returned a solubility in data set [3] (pH 9, aqueous buffer) of under 1 µg/mL.
On to Hydrochloride, for which the “aqueous solubility (in words)” value in data set [4] was “poorly soluble in water”. Further, the “Aqueous Solubility” value in data set [4] (time 0.5 hr) was determined as 1650 µg/mL; in data set [4] (time 1 hr), 1630 µg/mL; in data set [4] (time 4 hr), 1370 µg/mL; in data set [4] (time 70 hr), 1060 µg/mL.
